What was measured:
[1] = cited from earlier work
[2] = system: bovine serum albumin (BSA); details: cited from earlier work
[3] = Critical micelle concentration from conductivity measurements; format: physicochemical; details: 25 °C
L929 cells = assay: Cytotoxicity, MTT assay; format: cell-based; details: read-out: IC50 (best-fit), 48 h (method b31 says 24 h)
[4] = Thermogravimetric analysis; format: physicochemical; details: TGA, nitrogen, 10 °C·min^–1
[5] = Solubility in water or ethanol by the conductivity method; details: 25 °C
[6] = Pharmacokinetic experiments in mice; format: in vivo; details: printed as 'higher than that of naproxen'
[7] = cited from earlier work; remark: listed apart in the source

critical micelle concentration ([3]; ethanol)	critical micelle concentration ([3]; water)	beginning weight loss temperature [4] [°C]	mass of solute per 100 g of solvent ([5]; ethanol) [g·100 g^–1]	mass of solute per 100 g of solvent ([5]; water) [g·100 g^–1]	cmax [6] [mg·L^–1]	Structure (SMILES)	increase of permeation of naproxen through the skin [1]	binding affinity for BSA relative to parent naproxen [2]	IC50 (L929 cells) [µM]	improvement of dissolution rates compared with the original naproxen [7]
						CC(C)OC(=O)[C@@H]1CCCN1.COc1ccc2cc([C@H](C)C(=O)O)ccc2c1 [L-proline isopropyl ester naproxen]	almost four times			
						CC(C)OC(=O)[C@@H](N)C(C)C.COc1ccc2cc([C@H](C)C(=O)O)ccc2c1 [L-valine isopropyl ester naproxen]		about 1 order of magnitude lower		
6.25 × 10^–6 mol·L^–1	3.05 × 10^–5 mol·L^–1	147.05	97.61	61.6251		CCCCCCCCCCCCCC[N+](C)(C)Cc1ccccc1.COc1ccc2cc([C@H](C)C(=O)[O-])ccc2c1 [[Ben][Nap], tetradecyldimethylbenzyl ammonium naproxen]			111	
3.48 × 10^–6 mol·L^–1	3.75 × 10^–5 mol·L^–1	171.93	70.23	124.51	23.051	COc1ccc2cc(C(C)C(=O)[O-])ccc2c1.C[N+](C)(C)CCO (stereo not shown) [[Ch][Nap], choline naproxen]			783	
4.89 × 10^–6 mol·L^–1	5.68 × 10^–5 mol·L^–1	218.79	82.00	112.56		CCCCCCCCn1cc[n+](C)c1.COc1ccc2cc(C(C)C(=O)[O-])ccc2c1 (stereo not shown) [[Omim][Nap], 1-octyl-3-methylimidazole naproxen]			174	
						CCCC[P+](CCCC)(CCCC)CCCC.COc1ccc2cc(C(C)C(=O)[O-])ccc2c1 [[Tbp][Nap], tetrabutyl phosphonium naproxen]				up to 1000 times

From article PMC9996794 (ACS Omega, 2023)
